The results in this text go back to article PMC12746157, “Light-Regulated Agonists Spatiotemporally Activating the Vitamin D Receptor Mitigate Psoriasis-like Inflammation in Mice without Inducing Hypercalcemia” (ACS Central Science, 2025).

“Also recorded” adds a separate entry of the source.

Data set [1] can be described thus: Thermal relaxation and photoisomerization rates of PhotoVDRM in aqueous assay buffer. The data set is classed as physicochemical. As to conditions: for photoisomerization rate (τ) trans to cis: 365 nm, aqueous buffer 0.6% DMSO. Here is the method: The UV–vis absorbance spectra of all molecules were measured in the dark and after the application of light of different wavelengths ranging from 365 to 770 nm (Figure A and Figures S1–S3). […] Consequently, violet/UV light below 405 nm efficiently promoted photoisomerization, which produced a dramatic decrease in the π-π* band and a significant increase in the n-π* band at around 445 nm (Table ). […] The proportion of molecules at the PSS in trans isomer upon constant illumination with light at 525 nm and cis at 365 nm was in general above 50%, reaching a remarkable >99% for compound 11d (Table and Figures S4 and S5). […] The greater stability of the trans isomer was consistent with previous quantum mechanical and molecular mechanics predictions. Measuring the photoisomerization properties of compound PhotoVDRM allowed us to determine the photoisomerization quantum yields of the compound by solving a differential equation for photoisomerization. We used MATLAB to perform regression and arrive at the following photoisomerization quantum yields: ϕ365 nm (trans) = 0.0427, ϕ365 nm (cis) = 0.0501, ϕ470 nm (trans) = 0.1857, and ϕ470 nm (cis) = 0.2281 (Figure S9). […] A deeper photocharacterization of PhotoVDRM allowed us to measure the kinetics of photoconversion upon constant illumination with two wavelengths and three light intensities (Figure D and Figure S10). […] Indeed, with LED devices producing light at intensities as low as 0.05 mW/mm^2 we were able to transform trans to cis in around 15.5 s. This time was reduced to 6 and 2 s when the light intensity was increased to 0.15 and 0.75 mW/mm^2. […] Therefore, we proceeded to test the ability of the chemical library to activate the VDR under different light conditions.
2 Photochemical characterization of compound PhotoVDRM. (A) UV–vis absorption spectra of compound PhotoVDRM under different light conditions. (B) Half-lifetime estimation of compound PhotoVDRM, absorbance was measured at 365 nm. (C) Multiple cis/trans isomerization cycles (365/460 nm) show the stability of the compound over 6 cycles of light application. (D) Photoisomerization under constant illumination with light at 365 nm (violet shade) and 470 nm (blue shade). Light was applied with a CoolLED pe-4000 at 50% intensity that corresponded to 0.75 mW/mm^2 for the light at 365 nm and 0.56 mW/mm^2 for the light at 470 nm; 10% intensity corresponded to 0.15 mW/mm^2 for the light at 365 nm and 0.12 mW/mm^2 for the light at 470 nm; and 5% intensity corresponded to 0.06 mW/mm^2 for the light at 365 nm and 0.05 mW/mm^2 for the light at 470 nm. The photoisomerization rates (τ) using light at 365 nm were measured as 2, 6, and 15.5 s with 50%, 10% and 5% of intensity. […]

A short description of data set [2]: Serum total calcium measurement in mice (Arsenazo III). It is filed as in vivo. The note with it: after treatment i.p. days 2-4 (LSN2148936 0.005 mg/kg, PhotoVDRM 0.5 mg/kg), 420 or 520 nm.
Data set [3] concerns the target VDR (Homo sapiens, UniProt P11473). The experiment in a line: Luminescent proximity homogeneous assay (AlphaScreen): interaction of purified VDR, RxR and TRAP220 coactivator fragment. The data set is classed as biochemical. As to conditions: UVB narrowband light (315 nm) and visible illumination at 420 nm. In general terms: In Alpha technology, singlet oxygen from a donor bead excites a nearby acceptor bead.

Sequence of VDR (P11473 whole entry, the tested form may be a part): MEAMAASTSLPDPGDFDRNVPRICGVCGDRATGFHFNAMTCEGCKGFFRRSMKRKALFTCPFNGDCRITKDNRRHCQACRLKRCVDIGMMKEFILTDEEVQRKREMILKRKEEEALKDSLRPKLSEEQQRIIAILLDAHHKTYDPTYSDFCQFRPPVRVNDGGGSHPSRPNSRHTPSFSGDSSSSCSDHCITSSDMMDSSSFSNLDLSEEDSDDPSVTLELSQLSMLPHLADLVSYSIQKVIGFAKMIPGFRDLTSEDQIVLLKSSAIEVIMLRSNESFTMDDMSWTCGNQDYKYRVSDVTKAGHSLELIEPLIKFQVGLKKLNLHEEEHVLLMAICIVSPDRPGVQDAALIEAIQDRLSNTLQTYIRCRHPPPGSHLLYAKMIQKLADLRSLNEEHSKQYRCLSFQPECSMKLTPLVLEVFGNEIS
Sequence of VDR (P19793 whole entry partner, the tested form may be a part): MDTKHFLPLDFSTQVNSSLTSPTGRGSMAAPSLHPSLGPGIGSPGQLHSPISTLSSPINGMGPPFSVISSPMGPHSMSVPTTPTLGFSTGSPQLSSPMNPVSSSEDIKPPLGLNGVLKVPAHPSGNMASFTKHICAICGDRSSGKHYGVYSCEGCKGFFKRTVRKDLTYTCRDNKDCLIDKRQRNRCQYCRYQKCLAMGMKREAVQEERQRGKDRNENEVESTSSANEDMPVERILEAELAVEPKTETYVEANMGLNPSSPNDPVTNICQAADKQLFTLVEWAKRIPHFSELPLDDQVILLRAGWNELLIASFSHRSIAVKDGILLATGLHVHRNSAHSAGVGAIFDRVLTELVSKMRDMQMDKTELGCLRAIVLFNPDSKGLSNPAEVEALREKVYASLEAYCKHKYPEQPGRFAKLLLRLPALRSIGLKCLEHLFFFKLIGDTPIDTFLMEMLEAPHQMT
Sequence of VDR (Q15648 whole entry partner, the tested form may be a part): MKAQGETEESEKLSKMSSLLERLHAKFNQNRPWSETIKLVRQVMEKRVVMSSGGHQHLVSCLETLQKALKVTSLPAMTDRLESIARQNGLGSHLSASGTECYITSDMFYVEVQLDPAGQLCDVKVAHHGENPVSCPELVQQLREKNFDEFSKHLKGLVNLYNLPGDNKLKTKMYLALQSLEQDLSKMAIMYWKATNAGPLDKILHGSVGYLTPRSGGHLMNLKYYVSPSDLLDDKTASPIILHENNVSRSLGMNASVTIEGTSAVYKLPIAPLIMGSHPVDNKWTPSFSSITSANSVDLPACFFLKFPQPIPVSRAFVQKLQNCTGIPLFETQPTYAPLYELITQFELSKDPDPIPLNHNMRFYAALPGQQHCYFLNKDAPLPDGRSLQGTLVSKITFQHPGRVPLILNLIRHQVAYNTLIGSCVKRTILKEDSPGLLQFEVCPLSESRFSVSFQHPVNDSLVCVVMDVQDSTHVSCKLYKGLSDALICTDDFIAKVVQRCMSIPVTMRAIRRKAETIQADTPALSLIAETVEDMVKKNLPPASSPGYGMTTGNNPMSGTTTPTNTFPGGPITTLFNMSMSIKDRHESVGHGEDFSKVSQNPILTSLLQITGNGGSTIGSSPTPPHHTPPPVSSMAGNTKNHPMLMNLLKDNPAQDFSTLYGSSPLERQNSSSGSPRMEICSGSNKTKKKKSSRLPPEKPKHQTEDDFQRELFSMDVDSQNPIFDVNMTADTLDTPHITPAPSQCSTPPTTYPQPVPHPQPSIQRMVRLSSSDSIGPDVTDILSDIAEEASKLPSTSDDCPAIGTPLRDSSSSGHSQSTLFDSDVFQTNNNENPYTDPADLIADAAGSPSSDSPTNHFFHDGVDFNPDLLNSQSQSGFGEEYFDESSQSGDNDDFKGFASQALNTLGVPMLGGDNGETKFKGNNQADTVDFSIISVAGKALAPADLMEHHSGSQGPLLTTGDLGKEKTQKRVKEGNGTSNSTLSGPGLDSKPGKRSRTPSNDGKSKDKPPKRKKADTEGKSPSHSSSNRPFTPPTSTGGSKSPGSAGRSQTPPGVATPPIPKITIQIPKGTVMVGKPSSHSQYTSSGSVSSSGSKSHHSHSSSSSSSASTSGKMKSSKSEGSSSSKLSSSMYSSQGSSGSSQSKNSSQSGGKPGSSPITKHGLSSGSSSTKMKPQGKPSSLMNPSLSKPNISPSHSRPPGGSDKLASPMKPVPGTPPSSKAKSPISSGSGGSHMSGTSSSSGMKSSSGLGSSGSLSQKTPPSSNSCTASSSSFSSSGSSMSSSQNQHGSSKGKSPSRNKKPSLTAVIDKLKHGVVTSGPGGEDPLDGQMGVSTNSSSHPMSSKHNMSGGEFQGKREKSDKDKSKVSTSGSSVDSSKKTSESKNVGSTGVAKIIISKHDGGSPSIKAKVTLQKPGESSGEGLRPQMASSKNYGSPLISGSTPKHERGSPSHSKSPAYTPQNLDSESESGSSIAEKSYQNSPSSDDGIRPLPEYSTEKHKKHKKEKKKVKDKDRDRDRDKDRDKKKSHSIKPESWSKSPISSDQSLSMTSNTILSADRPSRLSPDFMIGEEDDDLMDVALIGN

Regarding `Cc1cc(OCC(O)C(C)(C)C)ccc1N=Nc1cccc(-c2ccc(C(=O)O)cc2)c1` (stereo not drawn) [Compound 11b], the “photoisomerization rate (τ) trans to cis” value in data set [1] (10% intensity, 0.15 mW/mm^2, 25 °C) came out at 6 s; in data set [1] (50% intensity, 0.75 mW/mm^2, 25 °C), 2 s. For the same compound, the thermal relaxation in data set [1] (aqueous buffer used for pharmacological experiments (0.5% DMSO)) was 3 h. In data set [1] (buffer vs pure DMSO), the “thermal relaxation in aqueous buffer, times faster than in pure DMSO” value is recorded as around 7 times. For the same compound, the “effect on calcium homeostasis (serum total calcium)” value in data set [2] is “null impact; also recorded: without concomitant hypercalcemia”. For the same compound, in data set [3], the “modulation of activity by light” value is on record as “modulated the activity”.
